The source made the active and inactive calls. No cut-off for these calls is given here.

One data set addresses Histone deacetylase 3 (Homo sapiens, UniProt O15379). Put plainly: Inhibition of HDAC3 after 10 mins by fluorometric assay.
Data set [1] addresses T1, Protein deacetylase HDAC6 (Homo sapiens, UniProt Q9UBN7).
T1 sequence (Q9UBN7 whole entry): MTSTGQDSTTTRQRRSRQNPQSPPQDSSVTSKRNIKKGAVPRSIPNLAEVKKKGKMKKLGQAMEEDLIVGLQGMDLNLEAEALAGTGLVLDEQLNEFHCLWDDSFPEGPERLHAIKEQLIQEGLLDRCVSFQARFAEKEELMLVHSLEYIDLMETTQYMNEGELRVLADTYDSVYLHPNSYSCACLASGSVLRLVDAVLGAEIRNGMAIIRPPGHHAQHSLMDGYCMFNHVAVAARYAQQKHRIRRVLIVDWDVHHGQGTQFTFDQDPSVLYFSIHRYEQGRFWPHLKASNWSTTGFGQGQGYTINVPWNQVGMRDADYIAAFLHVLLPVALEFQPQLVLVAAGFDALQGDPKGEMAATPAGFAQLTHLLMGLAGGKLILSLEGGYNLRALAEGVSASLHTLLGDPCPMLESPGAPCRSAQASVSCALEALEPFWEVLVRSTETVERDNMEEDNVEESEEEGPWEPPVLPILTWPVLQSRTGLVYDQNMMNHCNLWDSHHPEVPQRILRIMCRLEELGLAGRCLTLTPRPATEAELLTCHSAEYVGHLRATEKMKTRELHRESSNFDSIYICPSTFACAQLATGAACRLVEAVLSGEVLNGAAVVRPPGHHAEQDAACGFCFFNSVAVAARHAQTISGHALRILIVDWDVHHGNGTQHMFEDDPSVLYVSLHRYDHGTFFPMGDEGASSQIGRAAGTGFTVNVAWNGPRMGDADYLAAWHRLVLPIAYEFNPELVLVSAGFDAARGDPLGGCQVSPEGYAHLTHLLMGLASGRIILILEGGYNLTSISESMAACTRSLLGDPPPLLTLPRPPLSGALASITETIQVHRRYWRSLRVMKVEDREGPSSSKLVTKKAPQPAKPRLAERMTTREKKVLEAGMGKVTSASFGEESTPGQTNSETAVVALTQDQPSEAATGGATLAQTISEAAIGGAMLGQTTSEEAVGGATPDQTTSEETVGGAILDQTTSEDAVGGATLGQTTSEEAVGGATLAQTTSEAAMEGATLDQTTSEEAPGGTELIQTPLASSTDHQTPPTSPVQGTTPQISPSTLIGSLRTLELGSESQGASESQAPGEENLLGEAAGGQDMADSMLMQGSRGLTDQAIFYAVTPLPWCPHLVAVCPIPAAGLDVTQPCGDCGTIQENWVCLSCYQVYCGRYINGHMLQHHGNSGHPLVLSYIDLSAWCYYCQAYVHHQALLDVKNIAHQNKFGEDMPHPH
In words: Inhibition of HDAC6 after 10 mins by fluorometric assay.

The next data set deals with T2, Vitamin D3 receptor (Homo sapiens, UniProt P11473).
T2 sequence (P11473 whole entry): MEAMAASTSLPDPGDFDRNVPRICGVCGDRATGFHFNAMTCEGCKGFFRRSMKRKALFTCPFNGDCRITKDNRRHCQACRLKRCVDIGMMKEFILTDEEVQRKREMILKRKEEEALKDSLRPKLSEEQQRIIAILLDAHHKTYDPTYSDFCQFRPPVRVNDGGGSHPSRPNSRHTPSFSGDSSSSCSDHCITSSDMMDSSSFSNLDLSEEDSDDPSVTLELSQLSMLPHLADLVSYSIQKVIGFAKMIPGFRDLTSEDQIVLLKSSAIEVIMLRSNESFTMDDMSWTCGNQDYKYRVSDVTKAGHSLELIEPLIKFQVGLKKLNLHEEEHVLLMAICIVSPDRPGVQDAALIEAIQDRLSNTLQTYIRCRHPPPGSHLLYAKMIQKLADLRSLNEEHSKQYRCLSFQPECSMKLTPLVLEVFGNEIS

Another data set deals with Histone deacetylase 2 (Homo sapiens, UniProt Q92769). In words: Inhibition of HDAC2 after 10 mins by fluorometric assay.
For another data set, the system named is AT84. Put plainly: Antiproliferative activity against mouse AT84 cells at 100 to 500 nM after 48 hrs by EdU incorporation assay. In kind it is functional, cell-based.
In data set [2] the test system is Mus musculus. In words: Toxicity in FVB mouse assessed as calcium level in blood at 240 pmol/day administered via osmotic pump for 6 to 7 days measured on day 4 by microchemistry (RVb = 2.11 mmol/L). Format: organism-based. Conditions: in vivo, other.
The test system of data set [3] is Mus musculus. Put plainly: Toxicity in FVB mouse assessed as calcium level in blood at 1200 pmol/day administered via osmotic pump for 6 to 7 days measured on day 4 by microchemistry (RVb = 2.11 mmol/L). Format: organism-based. Conditions: in vivo, other.
For data set [4], the system named is Mus musculus. In words: Toxicity in FVB mouse assessed as calcium level in blood at 240 pmol/day administered via osmotic pump for 6 to 7 days measured on day 7 by microchemistry (RVb = […] mmol/L). Format: organism-based. Conditions: in vivo, other.
For data set [5], the system named is Mus musculus. In words: Toxicity in FVB mouse assessed as calcium level in blood at 1200 pmol/day administered via osmotic pump for 6 to 7 days measured on day 7 by microchemistry (RVb = […] mmol/L). In kind it is organism-based. To be noted: in vivo, other.
Data set [6] relates to Mus musculus. In words: Toxicity in FVB mouse assessed as calcium level in blood at 240 pmol/day administered via osmotic pump for 6 to 7 days measured on day 3 by microchemistry (RVb = 2.24 mmol/L). In kind it is organism-based. To be noted: in vivo, other.
In data set [7] the test system is Mus musculus. In words: Toxicity in FVB mouse assessed as calcium level in blood at 1200 pmol/day administered via osmotic pump for 6 to 7 days measured on day 3 by microchemistry (RVb = 2.24 mmol/L). Format: organism-based. Conditions: in vivo, other.
Data set [8] deals with Mus musculus. In words: Toxicity in FVB mouse assessed as calcium level in blood at 240 pmol/day administered via osmotic pump for 6 to 7 days measured on day 6 by microchemistry (RVb = 2 mmol/L). To be noted: in vivo, other. In kind it is organism-based.
Data set [9] relates to Mus musculus. Put plainly: Toxicity in FVB mouse assessed as calcium level in blood at 1200 pmol/day administered via osmotic pump for 6 to 7 days measured on day 6 by microchemistry (RVb = 2 mmol/L). In kind it is organism-based. Conditions: in vivo, other.
Data set [10] in a line: Ratio of compound to calcitriol antiproliferative activity against mouse AT84 cells. In kind it is functional.

Sequence of Histone deacetylase 2 (Q92769 whole entry): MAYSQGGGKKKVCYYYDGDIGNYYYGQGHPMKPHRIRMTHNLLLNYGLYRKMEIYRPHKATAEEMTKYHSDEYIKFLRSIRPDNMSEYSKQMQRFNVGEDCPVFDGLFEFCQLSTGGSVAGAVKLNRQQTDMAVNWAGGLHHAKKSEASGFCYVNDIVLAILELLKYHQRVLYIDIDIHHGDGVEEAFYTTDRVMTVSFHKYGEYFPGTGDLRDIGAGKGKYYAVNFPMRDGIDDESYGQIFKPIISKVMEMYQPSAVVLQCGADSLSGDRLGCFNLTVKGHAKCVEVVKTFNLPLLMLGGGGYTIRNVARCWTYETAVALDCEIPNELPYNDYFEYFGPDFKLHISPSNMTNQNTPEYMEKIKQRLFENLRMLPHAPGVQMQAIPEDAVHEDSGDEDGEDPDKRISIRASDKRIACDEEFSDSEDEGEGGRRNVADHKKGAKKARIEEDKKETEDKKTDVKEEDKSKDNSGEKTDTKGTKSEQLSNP
Sequence of Histone deacetylase 3 (O15379 whole entry): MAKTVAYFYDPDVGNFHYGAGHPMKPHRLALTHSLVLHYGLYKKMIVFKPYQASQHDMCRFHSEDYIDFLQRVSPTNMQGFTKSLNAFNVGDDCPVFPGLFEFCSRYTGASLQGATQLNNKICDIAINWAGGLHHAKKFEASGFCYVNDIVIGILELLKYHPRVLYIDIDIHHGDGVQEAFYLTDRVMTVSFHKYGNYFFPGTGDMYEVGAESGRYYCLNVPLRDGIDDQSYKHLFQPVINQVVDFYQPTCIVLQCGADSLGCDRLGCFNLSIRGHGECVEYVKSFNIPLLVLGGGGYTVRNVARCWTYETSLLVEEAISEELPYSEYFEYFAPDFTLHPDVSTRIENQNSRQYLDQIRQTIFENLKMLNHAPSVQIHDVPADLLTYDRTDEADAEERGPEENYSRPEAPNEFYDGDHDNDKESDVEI
Description for Vitamin D3 receptor: Binding affinity to VDR ligand binding domain by fluorescence polarization competition assay

The term IC50 denotes the concentration needed to halve the response being measured. A low value points to higher potency. `C[C@H](CCCCNS(=O)(=O)C(F)(F)F)[C@H]1CC[C@H]2/C(=C/C=C3C[C@@H](O)C[C@H](O)C3)CCC[C@]12C`: the IC50 on Histone deacetylase 3 is 695 µM; in data set [1], 153 µM; against Vitamin D3 receptor, 0.014 µM.
Take `C[C@H](CCCCC(=O)Nc1ccccc1N)[C@H]1CC[C@H]2/C(=C/C=C3C[C@@H](O)C[C@H](O)C3)CCC[C@]12C`: the IC50 against Histone deacetylase 2 was determined as 189 µM; at Histone deacetylase 3 it was 104 µM; in [1] it was 81.1 µM; against Vitamin D3 receptor, 0.185 µM. Further, in the data set on AT84, the outcome was Active. Moreover, the Activity in the data set on Mus musculus [2] came to 1.97 mmol/L; in the data set with Mus musculus [3] it was 2.04 mmol/L; with Mus musculus [4] it was 1.8 mmol/L; in the data set with Mus musculus [5] it was 2.09 mmol/L.
For `CC(/C=C/C(=O)NO)=C\[C@@H](C)[C@H]1CC[C@H]2/C(=C/C=C3\C[C@@H](O)C[C@@H](O)C3)CCC[C@]12C` [TRICIFEROL], the IC50 on Histone deacetylase 2 was 10.4 µM; at Histone deacetylase 3, 13.3 µM; in [1] it was 0.58 µM; against Vitamin D3 receptor, 0.087 µM. Moreover, the Activity in the data set with Mus musculus [6] was 2.11 mmol/L; in the data set with Mus musculus [7], 1.92 mmol/L; in the data set with Mus musculus [8] it was 2.03 mmol/L; with Mus musculus [9] it was 2.08 mmol/L.
On to `CNC(=O)C(=O)CCCC[C@@H](C)[C@H]1CC[C@H]2/C(=C/C=C3C[C@@H](O)C[C@H](O)C3)CCC[C@]12C`, for which the results for the 50% inhibitory concentration (IC50) (on Histone deacetylase 2; at Histone deacetylase 3; in data set [1]) were 90.4 µM, 36 µM and 64 µM, respectively. In addition, the result in the data set on AT84 was Active.
Turning to `C[C@H](CCCC(=O)Nc1ccccc1N)[C@H]1CC[C@H]2/C(=C/C=C3C[C@@H](O)C[C@H](O)C3)CCC[C@]12C`, the values for the IC50 (against Histone deacetylase 3; in data set [1]; against Vitamin D3 receptor) were 460 µM, 330 µM and 0.524 µM, respectively. For the same compound, the Activity in the data set with Mus musculus [6] is listed as 1.89 mmol/L; with Mus musculus [7], 2.07 mmol/L; in the data set on Mus musculus [8], 2.05 mmol/L; with Mus musculus [9] it was 2.14 mmol/L.
As to `C[C@H](CCCNS(C)(=O)=O)[C@H]1CC[C@H]2/C(=C/C=C3C[C@@H](O)C[C@H](O)C3)CCC[C@]12C`, the 50% inhibitory concentration (IC50) against Histone deacetylase 3 amounted to 730 µM; in data set [1] it was 71.3 µM; against Vitamin D3 receptor, 0.213 µM.
For `C[C@H](CCCCNC(=O)CS)[C@H]1CC[C@H]2/C(=C/C=C3C[C@@H](O)C[C@H](O)C3)CCC[C@]12C`, the IC50 against Histone deacetylase 2 came out at 96.3 µM; at Histone deacetylase 3 it was 32.3 µM; in data set [1], 1.75 µM; against Vitamin D3 receptor, 0.036 µM. Further, in the data set on AT84, the outcome was Active. Moreover, the Activity in the data set on Mus musculus [2] is reported as 2.03 mmol/L; in the data set on Mus musculus [3], 2 mmol/L; with Mus musculus [4], 2.02 mmol/L; with Mus musculus [5], 2.04 mmol/L.
Take `C[C@H](CCCCCNS(N)(=O)=O)[C@H]1CC[C@H]2/C(=C/C=C3C[C@@H](O)C[C@H](O)C3)CCC[C@]12C`: the values for the IC50 (against Histone deacetylase 3; in [1]; on Vitamin D3 receptor) were 605 µM, 31.6 µM and 0.196 µM, respectively.
As to `C[C@H](CCCCNS(N)(=O)=O)[C@H]1CC[C@H]2/C(=C/C=C3C[C@@H](O)C[C@H](O)C3)CCC[C@]12C`, the 50% inhibitory concentration (IC50) at Histone deacetylase 3 is 470 µM; in data set [1] it was 50.4 µM; on Vitamin D3 receptor, 0.28 µM.
`C[C@H](CCCC(=O)NO)[C@H]1CC[C@H]2/C(=C/C=C3C[C@@H](O)C[C@H](O)C3)CCC[C@]12C`: the IC50 came to 3.2 µM at Histone deacetylase 3 and 9.3 µM in data set [1].
`C[C@H](CCCCNS(=O)(=O)c1ccccc1)[C@H]1CC[C@H]2/C(=C/C=C3C[C@@H](O)C[C@H](O)C3)CCC[C@]12C`: the results for the IC50 (on Histone deacetylase 3; in data set [1]; at Vitamin D3 receptor) were 508 µM, 293 µM and 0.015 µM, respectively. The Activity with Mus musculus [2] amounted to 2.05 mmol/L; in the data set on Mus musculus [3], 2.03 mmol/L; in the data set with Mus musculus [4] it was 1.95 mmol/L; in the data set with Mus musculus [5], 2.07 mmol/L.
On to `C[C@H](CCCCC(=O)NO)[C@H]1CC[C@H]2/C(=C/C=C3C[C@@H](O)C[C@H](O)C3)CCC[C@]12C`, for which the IC50 was 16.5 µM on Histone deacetylase 2, 14.5 µM on Histone deacetylase 3, 3 µM in [1] and 0.248 µM against Vitamin D3 receptor. The result in the data set with AT84 was Active. The Ratio in [10] came out at 20. Besides, the Activity with Mus musculus [6] is 1.93 mmol/L; in the data set on Mus musculus [7], 2.03 mmol/L; in the data set on Mus musculus [8], 1.93 mmol/L; in the data set with Mus musculus [9], 2.26 mmol/L.
As to `CCCCS(=O)(=O)NCCCC[C@@H](C)[C@H]1CC[C@H]2/C(=C/C=C3C[C@@H](O)C[C@H](O)C3)CCC[C@]12C`, the IC50 came to 725 µM on Histone deacetylase 3, 101 µM in data set [1] and 0.029 µM against Vitamin D3 receptor. For the same compound, the Activity with Mus musculus [2] stood at 1.99 mmol/L; in the data set on Mus musculus [3], 2.12 mmol/L; in the data set with Mus musculus [4], 2.05 mmol/L; in the data set on Mus musculus [5] it was 1.99 mmol/L.
In the case of `C[C@H](CCCCNS(C)(=O)=O)[C@H]1CC[C@H]2/C(=C/C=C3C[C@@H](O)C[C@H](O)C3)CCC[C@]12C`, the IC50 was 718 µM against Histone deacetylase 3, 191 µM in data set [1] and 0.321 µM on Vitamin D3 receptor. The Activity in the data set with Mus musculus [6] came out at 1.88 mmol/L; with Mus musculus [7], 2.01 mmol/L; with Mus musculus [8] it was 2.22 mmol/L; in the data set on Mus musculus [9] it was 1.92 mmol/L.
